From patent publication US11839613B2, “Pyrimidine derivatives as PGE2 receptor modulators” (IDORSIA PHARMACEUTICALS LTD, priority 2017, dated 2023)

What was measured:
[1] = molecular target: PTGER2 (EP2) (Homo sapiens (Human), UniProt P43116); experiment: hEP2 b-arrestin assay (PathHunter HEK 293 PTGER2 b-arrestin cells); assay type: cell-based; conditions: antagonistic activity, beta-arrestin assay; read-out: hEP2 b-arr IC50
Description: Plate is pre-incubated 15 minutes at 37° C. Then five microliters of PGE2 (final conc. 5 μM) are transferred into the assay plate. Plate is incubated 120 minutes at 37° C.
(each concentration is measured in duplicate)

[2] = molecular target: EP2 (Homo sapiens (Human), UniProt P43116); experiment: hEP2 cAMP assay (SF295 glioblastoma cells, HTRF cAMP); assay type: cell-based; conditions: antagonistic activity
Sequence of EP2 (P43116 whole entry): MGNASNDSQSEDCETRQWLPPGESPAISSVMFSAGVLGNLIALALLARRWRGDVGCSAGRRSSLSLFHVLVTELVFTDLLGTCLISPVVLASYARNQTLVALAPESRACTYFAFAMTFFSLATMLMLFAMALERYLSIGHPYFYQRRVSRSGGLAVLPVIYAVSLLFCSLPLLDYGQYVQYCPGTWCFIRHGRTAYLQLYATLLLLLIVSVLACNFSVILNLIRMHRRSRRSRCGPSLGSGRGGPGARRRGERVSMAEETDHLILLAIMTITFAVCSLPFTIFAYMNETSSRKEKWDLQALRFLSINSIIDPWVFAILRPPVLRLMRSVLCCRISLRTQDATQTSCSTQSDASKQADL
Procedure, shortened: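 PGE2-driven cAMP accumulation was measured by HTRF in SF295 cells, which express endogenous EP2 only. Cells in assay buffer with 2 mM IBMX were pre-incubated 45 min at RT, then incubated 30 min at RT. Detection used competition between cellular cAMP and d2-cAMP for a cryptate anti-cAMP antibody.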

[3] = molecular target: EP4 (Homo sapiens (Human), UniProt P35408); experiment: hEP4 cAMP assay (BT549 breast cancer cells, HTRF cAMP); assay type: cell-based; conditions: antagonistic activity, PGE2 6 nM
Sequence of EP4 (P35408 whole entry): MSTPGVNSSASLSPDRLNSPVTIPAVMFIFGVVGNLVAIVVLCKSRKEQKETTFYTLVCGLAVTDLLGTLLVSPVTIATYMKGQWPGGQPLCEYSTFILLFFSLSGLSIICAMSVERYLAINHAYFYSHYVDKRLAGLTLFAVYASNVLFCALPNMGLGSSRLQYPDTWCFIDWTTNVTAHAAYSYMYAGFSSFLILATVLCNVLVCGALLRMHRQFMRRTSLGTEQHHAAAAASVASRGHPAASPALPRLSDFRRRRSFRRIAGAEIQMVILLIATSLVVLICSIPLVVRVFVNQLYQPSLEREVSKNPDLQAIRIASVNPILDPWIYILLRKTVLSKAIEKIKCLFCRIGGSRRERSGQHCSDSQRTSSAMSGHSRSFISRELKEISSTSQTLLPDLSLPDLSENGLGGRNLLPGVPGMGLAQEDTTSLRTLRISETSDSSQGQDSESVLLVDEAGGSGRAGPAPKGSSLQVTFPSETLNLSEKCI
Procedure, shortened: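 cAMP accumulation quantified by HTRF competition between cellular cAMP and d2-labeled cAMP for cryptate anti-cAMP antibody. Cells: endogenously EP4-expressing BT549, buffer with 2 mM IBMX; 45 min RT compound preincubation preceded 30 min RT challenge with PGE2 at 6 nM final.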

[4] = molecular target: PTGER4 (EP4) (Homo sapiens (Human), UniProt P35408); experiment: cell-based
Sequence of PTGER4 (EP4) (P35408 whole entry): as above

Sequence of PTGER2 (EP2) (P43116 whole entry): as the sequence (P43116 whole entry) above

Row | SMILES | IC50 [1] [nM] | IC50 [2] [nM] | IC50 [3] [nM] | IC50 [4] [nM] | IC50 ([3]; BT549 cells) [nM]
1 | CCOc1cc(-c2cc(NCCc3ccc4scc(C)c4c3)ncn2)sc1C(=O)O [Ex 47, 3-Ethoxy-5-{6-[2-(3-methyl-benzo[b]thiophen-5-yl)-ethylamino]-pyrimidin-4-yl}-thiophene-2-carboxylic acid] | 45 | 91 | 22 | 85 | 
2 | CCOc1cc2ccccc2c(C)c1CCNc1cc(-c2ccc(C(=O)O)c(SC)c2)ncn1 [Example 419, 4-{6-[2-(3-Ethoxy-1-methyl-naphthalen-2-yl)-ethylamino]-pyrimidin-4-yl}-2-methylsulfanyl-benzoic acid] | 3 | 29 |  | 30 | 85
3 | O=C(O)c1ccc(-c2cc(NCCc3cc4ccoc4cc3F)ncn2)cc1OC1CCC1 [Ex 200] | 57 | 108 | 227 | 510 | 
4 | CCOc1cc(-c2cc(NCCc3ccc4c(c3)OCC4)ncn2)sc1C(=O)O [Ex 67, 5-{6-[2-(2,3-Dihydro-benzofuran-6-yl)-ethylamino]-pyrimidin-4-yl}-3-ethoxy-thiophene-2-carboxylic acid] | 123 | 110 | 36 | 40 | 
5 | Cc1c(CCNc2cc(-c3ccc(C(=O)O)c(CC(C)C)c3)ncn2)ccc2ccccc12 [Ex 76, 2-Isobutyl-4-{6-[2-(1-methyl-naphthalen-2-yl)-ethylamino]-pyrimidin-4-yl}-benzoic acid] | 360 | 221 | 42 | 120 | 
6 | CCOc1nc(-c2cc(NCCc3ccc4ccccc4c3C)ncn2)sc1-c1noc(=O)[nH]1 [Example 352, 3-(4-Ethoxy-2-{6-[2-(1-methyl-naphthalen-2-yl)-ethylamino]-pyrimidin-4-yl}-thiazol-5-yl)-[1,2,4]oxadiazol-5(4H)-one] | 42 | 142 | 24 | 5 | 
7 | CCOc1nc(-c2cc(NCCc3ccc4ccccc4c3C)ncn2)sc1C(=O)O [Example 350, 4-Ethoxy-2-{6-[2-(1-methyl-naphthalen-2-yl)-ethylamino]-pyrimidin-4-yl}-thiazole-5-carboxylic acid] | 83 | 51 | 10 | 21 | 
8 | CCOc1cc(-c2cc(NCCc3cc4ccoc4cc3F)ncn2)ccc1OCC(=O)O [Ex 142, (2-Ethoxy-4-{6-[2-(6-fluoro-benzofuran-5-yl)-ethylamino]-pyrimidin-4-yl}-phenoxy)-acetic acid] | 121 | 177 | 127 | 180 | 
9 | CSc1cc(-c2cc(NCCc3cc(Cl)c4sccc4c3)ncn2)ccc1C(=O)O [Example 360, 4-{6-[2-(7-Chloro-benzo[b]thiophen-5-yl)-ethylamino]-pyrimidin-4-yl}-2-methylsulfanyl-benzoic acid] | 137 | 183 | 44 | 69 | 
10 | CCOc1cc(-c2cc(NCCc3cc4cccnc4cc3F)ncn2)sc1-c1noc(=O)[nH]1 [Example 348, 3-(3-Ethoxy-5-{6-[2-(7-fluoro-quinolin-6-yl)-ethylamino]-pyrimidin-4-yl}-thiophen-2-yl)-[1,2,4]oxadiazol-5(4H)-one] | 172 | 113 | 8 | 2 | 
11 | CSc1cc(-c2cc(NCCc3ccc4sccc4c3)ncn2)ccc1C(=O)O [Ex 132, 4-[6-(2-Benzo[b]thiophen-5-yl-ethylamino)-pyrimidin-4-yl]-2-methylsulfanyl-benzoic acid] | 82 | 66 | 107 | 161 | 
12 | CCc1nc(-c2cc(NCCc3ccc4ccccc4c3C)ncn2)sc1-c1noc(=O)[nH]1 [Example 353, 3-(4-Ethyl-2-{6-[2-(1-methyl-naphthalen-2-yl)-ethylamino]-pyrimidin-4-yl}-thiazol-5-yl)-[1,2,4]oxadiazol-5(4H)-one] | 237 | 115 | 109 | 9 | 
13 | CCCc1cc(-c2cc(NCCc3cc(F)c4sccc4c3)ncn2)ccc1CC(=O)O [Example 390, (4-{6-[2-(7-Fluoro-benzo[b]thiophen-5-yl)-ethylamino]-pyrimidin-4-yl}-2-propyl-phenyl)-acetic acid] | 264 | 590 | 32 | 29 | 
14 | CCOc1cc(-c2cc(NCCc3ccc4ccccc4c3C)ncn2)ccc1C(=O)O [Ex 172, 2-Ethoxy-4-{6-[2-(1-methyl-naphthalen-2-yl)-ethylamino]-pyrimidin-4-yl}-benzoic acid] | 157 | 137 | 181 | 287 | 
15 | CCOc1cc(-c2cc(NCCc3ccc4ccccc4c3C)ncn2)ccc1-c1nnn[nH]1 [Ex 156] | 107 | 221 | 154 | 36 | 
16 | CCOc1cc(-c2cc(NCCc3cc4ccoc4cc3OC)ncn2)ccc1OCC(=O)O [Ex 112, (2-Ethoxy-4-{6-[2-(6-methoxy-benzofuran-5-yl)-ethylamino]-pyrimidin-4-yl}-phenoxy)-acetic acid] | 40 | 69 | 82 | 127 | 
17 | COc1cc2occc2cc1CCNc1cc(-c2ccc(C(=O)O)c(OC3CCC3)c2)ncn1 [Ex 100, 2-Cyclobutoxy-4-{6-[2-(6-methoxy-benzofuran-5-yl)-ethylamino]-pyrimidin-4-yl}-benzoic acid] | 35 | 29 | 67 | 176 | 
18 | CCSc1cc(-c2cc(NCCc3cc4ccoc4cc3OC)ncn2)ccc1C(=O)O [Ex 158, 2-Ethylsulfanyl-4-{6-[2-(6-methoxy-benzofuran-5-yl)-ethylamino]-pyrimidin-4-yl}-benzoic acid] | 23 | 16 | 157 | 185 | 
19 | O=C(O)c1cc2cc(-c3cc(NCCc4ccc5sccc5c4)ncn3)ccc2o1 [Ex 38, 5-[6-(2-Benzo[b]thiophen-5-yl-ethylamino)-pyrimidin-4-yl]-benzofuran-2-carboxylic acid] | 226 | 210 | 28 | 123 | 
20 | CCOc1cc(-c2cc(NCCc3ccc4cc[nH]c4c3)ncn2)sc1-c1noc(=O)[nH]1 [Example 343, 3-(3-Ethoxy-5-{6-[2-(1H-indol-6-yl)-ethylamino]-pyrimidin-4-yl}-thiophen-2-yl)-[1,2,4]oxadiazol-5(4H)-one] | 9 | 23 | 12 | 2 | 
21 | CCOc1cc(-c2cc(NCCc3ccc4ccccc4c3C)ncn2)sc1CCC(=O)O [Ex 57, 3-(3-Ethoxy-5-{6-[2-(1-methyl-naphthalen-2-yl)-ethylamino]-pyrimidin-4-yl}-thiophen-2-yl)-propionic acid] | 195 | 191 | 28 | 34 | 
22 | CCOc1cc(-c2cc(NCCc3ccc4[nH]ccc4c3)ncn2)sc1-c1noc(=O)[nH]1 [Example 339, 3-(3-Ethoxy-5-{6-[2-(1H-indol-5-yl)-ethylamino]-pyrimidin-4-yl}-thiophen-2-yl)-[1,2,4]oxadiazol-5(4H)-one] | 66 | 90 | 22 | 10 | 
23 | CCOc1cc(-c2cc(NCCc3cc4sccc4cc3OC)ncn2)ccc1C(=O)O [Ex 218] | 160 | 405 | 278 | 651 | 
